Measured values: publication PMC10056636, “3-Amino-Substituted Analogues of Fusidic Acid as Membrane-Active Antibacterial Compounds” (Membranes, 2023)
Values after ≈ are worked out from the molar mass of the structure shown. Values joined by “and” are separate entries in the source; they are usually repeats but may differ in a detail not shown here. Identical values can stand only once.

Key:
[1] = Ion permeability and rupture of planar lipid bilayers; settings: for concentration up to which addition did not increase the ion permeability of the lipid bilayers: DPhPC uncharged membranes; for Cbr (threshold concentration required to rupture the bilayer): DPhPC, 0.1 M KCl, pH 7.4, 100 mV
Procedure: (§1) Synthetic 1,2-diphytanoyl-sn-glycero-3-phosphocholine (DPhPC) and 1,2-diphytanoyl-sn-glycero-3-phospho-(1′-rac-glycerol) (DPhPG) were purchased from Avanti® Polar Lipids (Avanti Polar Lipids, Inc., Alabaster, AL, USA). A KCl solution (0.1 M) was buffered with 5 mM HEPES, pH 7.4. Bilayer lipid membranes were prepared from DPhPC or DPhPG using a monolayer-opposition technique on a 50 µm-diameter aperture in a 10 µm-thick Teflon film separating the cis- and trans-compartments of the Teflon chamber. Experiments were performed in chambers containing 0.1 M KCl, 5 mM Hepes-KOH, pH 7.4.
(§2) The test compounds (4, 20, 22) were added to the cis-chamber as 10 mg/mL solutions in ethanol (to mimic the physiologically relevant conditions) up to the final concentrations and the effects of the compounds on the ion permeability of the model lipid membranes were studied. Ag/AgCl electrodes with 1.5% agarose/2 M KCl bridges were used to apply the transmembrane voltage (V) and measure the transmembrane current (I). ‘Positive voltage’ refers to the case in which the cis-side compartment is positive with respect to the trans-side. All experiments were performed at room temperature.
(§3) The current was measured using an Axopatch 200B amplifier (Molecular Devices, LLC, Orlean, CA, USA) in voltage clamp mode. Data were digitized using a Digidata 1440A and analyzed using pClamp 10.0 (Molecular Devices, LLC, Orlean, CA, USA) and Origin 8.0 (OriginLab Corporation, Northampton, MA, USA). The data were acquired at a sampling frequency of 5 kHz using low-pass filtering at 200 Hz.
(§4) The threshold concentrations (Cbr) of the derivatives required to rupture the bilayers composed of DPhPC or DPhPG at a transmembrane voltage of 100 mV were determined. Cbr-values were averaged from 3 to 4 bilayers and presented as mean ± standard error (p ≤ 0.05).

[2] = Calcein release from liposomes; settings: for τ (characteristic time of marker release): 5 μg/mL; for IFmax (maximum release of fluorescent marker from lipid vesicles): 5 μg/mL of test compound
Procedure: Calcein release from liposomes. Small unilamellar vesicles (Ø100 nm) composed of 1,2-dioleoyl-sn-glycero-3-phosphocholine (DOPC) or 1,2-dioleoyl-sn-glycero-3-phospho-(1′-rac-glycerol) (DOPG) and loaded with the fluorescent dye calcein (35 mM) were obtained using a mini-extruder (Avanti Polar Lipids, Alabaster, AL, USA). At this concentration, calcein fluorescence inside the liposomes is self-quenched. The calcein that was not entrapped in the vesicles was removed by gel filtration with calcein-free solution (150 mM KCl, 10 mM HEPES, pH 7.4). An increase in the free calcein fluorescence in a surrounding medium is a measure of the disturbance of membrane integrity, in the absence and presence of test compounds (4, 20, 22). The control samples were not modified. Experimental samples were treated by 5 µg/mL of the compounds (4, 20, 22). Fluorescence of released calcein was determined on a Fluorat-02-Panorama spectrofluorimeter (Lumex, Saint-Petersburg, Russia) (excitation wavelength of 490 nm, emission wavelength of 520 nm). The detergent Triton X-100 (at a final concentration of 1%) was added at the end of experiments for complete disruption of liposomes (complete release of calcein from the vesicles).
The relative intensity of calcein fluorescence (IF, %) was calculated as:(2) IF=I−I0/Imax/0.9−I0⋅100% where I and I0 are the calcein fluorescence intensities in the presence and absence of test compounds, respectively, and Imax is the maximal fluorescence after treatment of liposomes with Triton X-100 (a factor of 0.9 was introduced to account for sample dilution by Triton X-100).

[3] = Ion permeability, pore formation and rupture of planar lipid bilayers; settings: for formation of ion-permeable pores: DPhPG bilayers; for Cbr (threshold concentration required to rupture the bilayer): 0.1 M KCl, pH 7.4, 100 mV
Procedure: as §1, §2, §3, §4
Pore-forming ability of compound 22 was studied by applying transmembrane voltages in a range of 50–200 mV with 50 mV step and by increasing the derivative concentration in the bilayer bathing solution from 10 to 150 µg/mL.

[4] = system: Cryptococcus neoformans (ATCC 208821); test: Antifungal growth inhibition (MIC, CO-ADD); settings: inhibition ≥70%, two replicates per cell
Procedure: Antimicrobial, cytotoxicity, and hemolytic activity screening of the synthesized derivatives was carried out in the CO-ADD (The Community for Antimicrobial Drug Discovery) (http://www.co-add.org, accessed on 24 November 2020) and included analysis for antibacterial properties, cytotoxicity, and hemolytic activity.
The hit confirmation test included five bacteria, Escherichia coli (ATCC 25922), Klebsiella pneumoniae (ATCC 700603), Acinetobacter baumannii (ATCC 19606), Pseudomonas aeruginosa (ATCC 27853), and Staphylococcus aureus (ATCC 43300), and two fungi, Candida albicans (ATCC 90028) and Cryptococcus neoformans (ATCC 208821). […] The compounds were also screened for hemolysis of human red blood cells (human whole blood, strain ARCBS 5400 00150).
Samples were prepared in DMSO and water to a final testing concentration of 32 µg/mL or 20 µM (unless otherwise indicated in the data sheet) and serially diluted twofold up to 8 times. Each sample concentration was prepared in 384-well plates: non-binding surface plate (NBS; Corning 3640) for each bacterial/fungal strain, tissue-culture treated (TC-treated; Corning 3712/3764) black for mammalian cell types and polypropylene 384-well plates (PP; Corning 3657) for hemolysis assays. The final DMSO concentration was maintained to a maximum of 0.5%. All sample preparation procedures were performed using liquid-handling robots. All screening was performed as two replica (n = 2), with both replicas on different assay plates, but from single plating and performed in a single screening experiment (microbial incubation). In addition, two values are used as quality controls for individual plates: Z′-Factor [1 − (3* (sd(NegCtrl) + sd(PosCtrl))/(average(PosCtrl)-average(NegCtrl)))] and standard antibiotic controls at different concentrations (>MIC and <MIC).
Fungi strains were cultured for 3 days on yeast extract-peptone dextrose (YPD) agar at 30 °C. A yeast suspension of 1 × 10^6 to 5 × 10^6 CFU/mL (as determined by OD530) was prepared from five colonies. The suspension was subsequently diluted and added to each well containing a test compound, giving a final cell density of fungi suspension of 2.5 × 10^3 CFU/mL and a total volume of 50 µL. All plates were covered and incubated at 35 °C for 36 h without shaking.
The absorbance was measured using a Biotek Multiflo Synergy HTX plate reader. In both cases, the percentage of growth inhibition was calculated for each well, using the negative control (media only) and positive control (fungi without inhibitors) in the same plate. […] In addition, the maximal percentage of growth inhibition is reported as DMax, indicating any compounds with marginal activity.
Fluconazole was used as a positive fungal inhibitor standard for C. albicans and C. neoformans. […] The quality control (QC) of the assays was performed using Z′-factors calculated from the negative (media only) and positive controls (bacterial, fungal, or cell culture without inhibitor) and the standards.

Structure (SMILES) | concentration up to which addition did not increase the ion permeability of the lipid bilayers [1] | Cbr (threshold concentration required to rupture the bilayer) [1] | τ (characteristic time of marker release) ([2]; DOPC) | IFmax (maximum release of fluorescent marker from lipid vesicles) ([2]; DOPC) | τ (characteristic time of marker release) ([2]; DOPG) | IFmax (maximum release of fluorescent marker from lipid vesicles) ([2]; DOPG) | concentration from which (up to Cbr) stepwise current fluctuations are produced ([3]; DPhPG) | formation of ion-permeable pores [3] | Cbr (threshold concentration required to rupture the bilayer) ([3]; DPhPG) | amplitude of the stepwise current fluctuations ([3]; DPhPG, pores induced by the compound) | MIC ([4]; C. neoformans) | MIC ([4]; Cryptococcus neoformans, ATCC208821, C. neoformans) | concentration up to which ionic permeability of lipid bilayers is not affected ([3]; DPhPG)
COC(=O)/C(CCC=C(C)C)=C1\[C@@H](OC(C)=O)C[C@@]2(C)[C@@H]1C[C@@H](O)[C@@H]1[C@@]3(C)CC[C@H](NCCCNCCCCNCCCN)[C@@H](C)C3CC[C@@]12C (stereo partly drawn) [Compound 22, Methyl (2Z)-2-[(3β,4α,8α,11α,14β,16β)-16-(acetyloxy)-3-{[3-({4-[(3-aminopropyl)amino]butyl}amino)propyl]amino}-11-hydroxy-4,8,10,14-tetramethylgonan-17-ylidene]-6-methylhept-5-enoate] | ≤ 250 µg/mL | 250 ± 11 µg/mL | 0.7 ± 0.2 min | 95 ± 2% | 9.8 ± 0.4 min | 83 ± 3% | 35 to 40 µg/mL | able to produce stepwise current fluctuations | 135 ± 10 µg/mL | 20–160 pS | 1.0 µg/mL and 2.0 µg/mL | 1 µg/mL (≈ 1.4 µM) | –
COC(=O)/C(CCC=C(C)C)=C1\[C@@H](OC(C)=O)C[C@@]2(C)[C@@H]1C[C@@H](O)[C@@H]1[C@@]3(C)CC[C@H](NCCCNCCCCN)[C@@H](C)C3CC[C@@]12C (stereo partly drawn) [Compound 20, Methyl (2Z)-2-[(3β,4α,8α,11α,14β,16β)-16-(acetyloxy)-3-({3-[(4aminobutyl)amino]propyl}amino)-11-hydroxy-4,8,10,14-tetramethylgonan-17-ylidene]-6-methylhept-5-enoate] | ≤ 275 µg/mL | 275 ± 25 µg/mL | 0.5 ± 0.2 min | 88 ± 3% | 1.0 ± 0.1 min | 87 ± 4% | – | not able to form transient ion-permeable pores | 190 ± 13 µg/mL | – | – | – | ≤ 200 µg/mL
